ChEMBL document CHEMBL1201862, “PubChem BioAssay data set” (2004)
Several values for one entry are separate records, joined by “and”; a condition that tells them apart may be missing. Equal entries are not always repeated.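 96-well plates; 48 h exposure; 5 concentrations. Endpoints by linear interpolation between flanking doses. Not reached: highest tested concentration assigned. GI50: concentration for 50% inhibition of growth.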 Activity calls are given as the source filed them. Rule as the data show it: active = GI50 up to about 1.1 µM and inactive = higher.

Tests used:
Assay in all cases: NCI-60 cell line screen, 48 h
UACC-62 = tested on: UACC-62
SN12C = tested on: SN12C
SW-620 = tested on: SW-620
OVCAR-3 = tested on: OVCAR-3
A549 = tested on: A549
MDA-MB-435 = tested on: MDA-MB-435
SF-539 = tested on: SF-539
MCF7 = tested on: MCF7
SK-MEL-2 = tested on: SK-MEL-2
K562 = tested on: K562
SR = tested on: SR
CCRF-CEM = tested on: CCRF-CEM
HOP-62 = tested on: HOP-62
NCI-H522 = tested on: NCI-H522
A498 = tested on: A498
DU-145 = tested on: DU-145
LOX IMVI = tested on: LOX IMVI
RPMI-8226 = tested on: RPMI-8226
T47D = tested on: T47D
SF-295 = tested on: SF-295
HCC 2998 = tested on: HCC 2998
MDA-N = tested on: MDA-N
OVCAR-4 = tested on: OVCAR-4
HCT-15 = tested on: HCT-15
RXF 393 = tested on: RXF 393
MDA-MB-231 = tested on: MDA-MB-231
U-251 = tested on: U-251
NCI-H226 = tested on: NCI-H226
UACC-257 = tested on: UACC-257
SK-MEL-28 = tested on: SK-MEL-28
OVCAR-5 = tested on: OVCAR-5
HOP-92 = tested on: HOP-92
SK-OV-3 = tested on: SK-OV-3
TK-10 = tested on: TK-10
UO-31 = tested on: UO-31
Malme-3M = tested on: Malme-3M
COLO 205 = tested on: COLO 205
HCT-116 = tested on: HCT-116
KM12 = tested on: KM12
HL-60 = tested on: HL-60
786-0 = tested on: 786-0
NCI-H460 = tested on: NCI-H460
BT-549 = tested on: BT-549
SNB-19 = tested on: SNB-19
SNB-75 = tested on: SNB-75
M14 = tested on: M14
OVCAR-8 = tested on: OVCAR-8
ACHN = tested on: ACHN
IGROV-1 = tested on: IGROV-1
SK-MEL-5 = tested on: SK-MEL-5
NCI-H23 = tested on: NCI-H23
EKVX = tested on: EKVX
MOLT-4 = tested on: MOLT-4
PC-3 = tested on: PC-3
HT-29 = tested on: HT-29
NCI/ADR-RES = tested on: NCI/ADR-RES
CAKI-1 = tested on: CAKI-1
SF-268 = tested on: SF-268

In the case of COc1ccc(NC(C)=O)cc1N1C(=O)/C(=C\c2cccc(Oc3ccccc3)c2)S(=O)(=O)C1c1ccccc1 (configuration not stated), the GI50 (UACC-62) is reported as 58.7 µM (inactive), the GI50 (SN12C) is reported as 24.2 µM (inactive) and the GI50 (SW-620) is reported as 28.4 µM (inactive). For the same molecule, the GI50 (OVCAR-3) was 28.5 µM (inactive), the GI50 (A549) was 62.8 µM (inactive) and the GI50 (MDA-MB-435) was 33.8 µM (inactive). The GI50 (SF-539) was 20.7 µM (inactive), the GI50 (MCF7) was 25.9 µM (inactive) and the GI50 (SK-MEL-2) was 69.5 µM (inactive). For the same molecule, the GI50 (K562) was 22.8 µM (inactive), the GI50 (SR) was 4.21 µM (inactive) and the GI50 (CCRF-CEM) was 16.1 µM (inactive). For the same molecule, the GI50 (HOP-62) was 71.6 µM (inactive), the GI50 (NCI-H522) was 41.1 µM (inactive) and the GI50 (A498) was > 100 µM (inactive). For the same molecule, the GI50 (DU-145) was 39 µM (inactive), the GI50 (LOX IMVI) was 26.9 µM (inactive) and the GI50 (RPMI-8226) was 22.3 µM (inactive). The GI50 (T47D) was 18.5 µM (inactive), the GI50 (SF-295) was 53.1 µM (inactive) and the GI50 (HCC 2998) was > 100 µM (inactive). The GI50 (MDA-N) was 21 µM (inactive), the GI50 (OVCAR-4) was 16.1 µM (inactive) and the GI50 (HCT-15) was 39 µM. For the same molecule, the GI50 (RXF 393) was 54.8 µM (inactive), the GI50 (MDA-MB-231) was 49 µM (inactive) and the GI50 (U-251) was 32.7 µM (inactive). The GI50 (NCI-H226) was > 100 µM (inactive), the GI50 (UACC-257) was 49.3 µM (inactive) and the GI50 (SK-MEL-28) was 43.1 µM (inactive). For the same molecule, the GI50 (OVCAR-5) was > 100 µM (inactive), the GI50 (HOP-92) was 25 µM (inactive) and the GI50 (SK-OV-3) was > 100 µM (inactive). The GI50 (TK-10) was > 100 µM (inactive), the GI50 (UO-31) was 18.9 µM (inactive) and the GI50 (Malme-3M) was 70.1 µM (inactive). For the same molecule, the GI50 (COLO 205) was 58.2 µM (inactive), the GI50 (HCT-116) was 17.4 µM (inactive) and the GI50 (KM12) was 59.2 µM (inactive). For the same molecule, the GI50 (HL-60) was 20.4 µM (inactive), the GI50 (786-0) was 32.2 µM (inactive) and the GI50 (NCI-H460) was 74.1 µM (inactive). For the same molecule, the GI50 (BT-549) was 53.3 µM (inactive), the GI50 (SNB-19) was 46.1 µM (inactive) and the GI50 (SNB-75) was 19 µM (inactive). For the same molecule, the GI50 (M14) was 30.1 µM (inactive), the GI50 (OVCAR-8) was 35.1 µM (inactive) and the GI50 (ACHN) was 39.4 µM (inactive). The GI50 (IGROV-1) was 34.5 µM (inactive), the GI50 (SK-MEL-5) was 35.3 µM (inactive) and the GI50 (NCI-H23) was 60.3 µM (inactive). For the same molecule, the GI50 (EKVX) was 41.6 µM (inactive), the GI50 (MOLT-4) was 16.9 µM (inactive) and the GI50 (PC-3) was 36.6 µM (inactive). The GI50 (HT-29) was 18.7 µM (inactive), the GI50 (NCI/ADR-RES) was 27.9 µM (inactive) and the GI50 (CAKI-1) was 16.6 µM (inactive).

In the case of C#CC1(O)C(COP(=O)(O)OC(COCCCCCCCCCCCCCCCCCC)COP(=O)(O)OCC2OC(n3cc(F)c(=O)[nH]c3=O)CC2O)OC(n2ccc(N)nc2=O)C1O (configuration not stated), the GI50 (UACC-62) is reported as 546 nM (active) and 277 nM (active), the GI50 (SN12C) is reported as 0.0818 µM (active) and the GI50 (SW-620) is reported as 114 nM (active) and 91.8 nM (active). For the same molecule, the GI50 (OVCAR-3) was 1.04 µM (active) and 1.93 µM (inactive), the GI50 (A549) was < 28.8 nM (active) and 29.7 nM (active) and the GI50 (MDA-MB-435) was 514 nM (active) and 376 nM (active). The GI50 (SF-539) was < 21.3 nM (active) and < 23.3 nM (active), the GI50 (MCF7) was < 24.7 nM (active) and < 18.3 nM (active) and the GI50 (K562) was < 31.3 nM (active) and 27.5 nM (active). For the same molecule, the GI50 (SR) was < 13.8 nM (active) and < 15.7 nM (active), the GI50 (SF-268) was < 27.2 nM (active) and 48.8 nM (active) and the GI50 (HOP-62) was 434 nM (active) and 399 nM (active). For the same molecule, the GI50 (RPMI-8226) was 26.2 nM (active) and < 16.3 nM (active), the GI50 (HCC 2998) was 1.26 µM (inactive) and the GI50 (MDA-N) was 418 nM (active) and 293 nM (active). The GI50 (MDA-MB-231) was 1.1 µM (active) and 731 nM (active), the GI50 (NCI-H226) was 471 nM (active) and 299 nM (active) and the GI50 (UACC-257) was 1.15 µM (inactive) and 1.92 µM (inactive). For the same molecule, the GI50 (SK-OV-3) was 1.32 µM (inactive) and 2.43 µM (inactive), the GI50 (TK-10) was 200 nM (active) and 124 nM (active) and the GI50 (COLO 205) was 244 nM (active) and 211 nM (active). The GI50 (KM12) was 454 nM (active) and 252 nM (active), the GI50 (NCI-H460) was < 21.3 nM (active) and < 13.9 nM (active) and the GI50 (BT-549) was 752 nM (active) and 466 nM (active). For the same molecule, the GI50 (SNB-19) was 152 nM (active) and 277 nM (active), the GI50 (ACHN) was < 36.1 nM (active) and 59.2 nM (active) and the GI50 (SK-MEL-5) was 621 nM (active) and 467 nM (active). The GI50 (HT-29) was 361 nM (active) and 313 nM (active), the GI50 (NCI/ADR-RES) was 209 nM (active) and 265 nM (active) and the GI50 (CAKI-1) was 48.5 nM (active) and 54.8 nM (active).
